# Measured values taken from PubChem BioAssay (NCI).
# “And” between values parts separate entries of the source, which are not always exact repeats. Identical values can stand only once.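 Tested at 5 concentrations; 48 h exposure; 96-well plates; endpoints linearly interpolated, else capped at highest concentration. GI50 = concentration required for 50% inhibition of growth. TGI marks complete inhibition of growth.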
# Tests used:
# Assay in all cases: NCI tumour cell line growth inhibition, 48 h
# 786-0 renal = tested on: 786-0 renal
# HL-60(TB) leukemia = tested on: HL-60(TB) leukemia
# SK-OV-3 ovarian = tested on: SK-OV-3 ovarian
# MCF7 breast = tested on: MCF7 breast
# HS 578T breast = tested on: HS 578T breast
# A549 NSCLC = tested on: A549 NSCLC
# M14 melanoma = tested on: M14 melanoma
# OVCAR-8 ovarian = tested on: OVCAR-8 ovarian
# OVCAR-3 ovarian = tested on: OVCAR-3 ovarian
# PC-3 prostate = tested on: PC-3 prostate
# DU-145 prostate = tested on: DU-145 prostate
# T-47D breast = tested on: T-47D breast
# MDA-MB-435 = tested on: MDA-MB-435
# SNB-75 CNS = tested on: SNB-75 CNS
# ACHN renal = tested on: ACHN renal
# MDA-MB-231 breast = tested on: MDA-MB-231 breast
# SF-295 CNS = tested on: SF-295 CNS
# NCI-H226 lung = tested on: NCI-H226 lung
# BT-549 breast = tested on: BT-549 breast
SMILES,TGI (786-0 renal) [µM],TGI (HL-60(TB) leukemia) [µM],TGI (SK-OV-3 ovarian) [µM],TGI (MCF7 breast) [µM],TGI (HS 578T breast) [µM],TGI (A549 NSCLC) [µM],TGI (M14 melanoma) [µM],TGI (OVCAR-8 ovarian) [µM],TGI (OVCAR-3 ovarian) [µM],TGI (PC-3 prostate) [µM],TGI (DU-145 prostate) [µM],TGI (T-47D breast) [µM],TGI (MDA-MB-435) [µM],TGI (SNB-75 CNS) [µM],TGI (ACHN renal) [µM],TGI (MDA-MB-231 breast) [µM],TGI (SF-295 CNS) [µM],TGI (NCI-H226 lung) [µM],TGI (BT-549 breast) [µM],GI50 (A549 NSCLC)
CN(C)C(=S)C(Cl)(c1ccccc1)c1ccccc1,> 100,71.6,> 100,> 100,> 100,> 100,> 100,> 100,> 100,> 100,> 100,61.7,> 100,> 100,> 100,> 100,> 100,> 100,> 100,–
COC(=O)c1cc(O)c(O)c(O)c1-c1c(O)c(O)c(O)c(SC[C@H](NC(=O)OCc2ccccc2)C(=O)OCc2ccccc2)c1C(=O)OC,49.6,39.8,> 100,43.1,> 100,36.3,36.8,52.7,> 100,62.7,> 100,> 100,44,68.1,61.1,39,> 100,48.2,> 100,–
CC/C(Cl)=N\OC(=O)Nc1ccc(OC)c(C)c1,36.8,> 44.5,> 100,> 64.3,59.2,> 71.4,44.1,39.2,50,> 92.6,> 100,39.1,> 100,> 100,21.5,> 88.6,> 100,70.4,34.9,–
O=S(=O)(O)c1ccc2c(N=Nc3ccc(S(=O)(=O)O)c4ccccc34)c(O)c(S(=O)(=O)O)cc2c1,> 100,> 100,> 100,> 100,> 100,> 100,> 100,> 100,> 100,> 100,> 100,> 100,> 100,> 100,> 100,> 100,> 100,> 100,> 100,28.7 µM and > 100 µM
c1ccc(Cn2c(-c3ccc(-c4ccccc4)cc3)cc3ccccc32)cc1,> 100,> 100,> 100,> 100,> 100,> 100,> 100,> 100,> 100,> 100,> 100,> 100,> 100,> 100,> 100,> 100,> 100,> 100,> 100,–
COc1cc2cc3c4c(cc(OC)c(OC)c4c2cc1OC)CCN3C,> 50,18.7,> 50,> 36.4,> 50,> 50,> 50,> 50,31.9,> 29.9,19.8,4.1,> 23.4,27.8,31.7,> 44.1,> 31.8,26.7,> 23.6,–
O=C(COc1ccccc1)N(C(=O)N1CCN(c2ccccc2)CC1)S(=O)(=O)c1ccccc1,> 100,> 100,> 100,> 100,> 100,> 100,> 100,> 100,> 100,> 100,> 100,87.6,> 100,96,> 100,> 100,> 100,> 100,> 100,–
Nc1cccc(OCC2CCCN3CCCCC23)c1 (configuration not stated),29.6,39.7,> 100,37.1,35.2,45.1,41.4,34.4,38.2,37.7,32.6,33.8,40.2,30.8,31.9,32.6,33.8,> 100,30.9,–
Nc1nc(Cl)c2ncn(Cc3cccc(CCl)c3)c2n1,22.6,> 36.1,50.8,> 31,36.9,29.9,12.9,11.3,3.74,26.4,18.6,42.1,29,26.8,12.4,27.6,21.3,26.9,17.4,–
CCOC(=O)CCC(NC(=O)c1ccc(Oc2nc3c(N)cc(C(F)(F)F)cc3nc2-c2ccccc2)cc1)C(=O)OCC (configuration not stated),> 22,> 100,> 58.6,> 100,> 72.8,> 100,> 100,> 80.7,> 30.9,> 79.4,> 64.8,> 100,> 100,25.4,> 69.6,> 96.1,96.8,> 55.8,> 95,–
O=C1OCC(c2ccc(Cl)cc2)=C1Cl,40.6,48.5,> 100,44.6,> 100,> 100,41.8,73.6,44.4,67.9,> 100,> 100,> 100,> 100,> 100,98.6,> 100,> 100,53.9,–
CCC1(CC)N=C(C(F)(F)F)c2cc(C(=O)C(F)(F)F)c3ccccc3c2N1,13.7,8.25,49.7,27.4,32.2,60.7,25.3,> 100,8.58,> 100,21.5,15.2,> 100,23,> 100,12.3,9.6,20.9,29,–
COC(=O)c1c(C)c2c(c(C)c1C(=O)OC)-c1c(C)ccc3ccc(C)c-2c13,> 100,> 50.7,> 100,> 100,> 100,> 100,> 100,> 100,> 100,> 100,> 100,> 95.7,> 100,> 100,> 100,> 60.6,> 87.1,> 100,> 100,–
COc1ccc(CNc2nc(NCc3ccc(OC)cc3)nc(NC3CCCC3)n2)cc1,> 68.5,> 28.3,> 100,9.83,> 21.3,> 67.7,> 100,20,> 23,> 100,> 40.7,> 100,4.95,> 100,> 100,> 31.2,> 31.5,> 55.8,> 31.8,–
O=c1[nH][nH]c(=O)n1/N=C/c1ccccc1,> 100,> 100,> 100,> 100,> 100,> 100,> 100,> 100,> 100,> 100,> 100,> 100,> 100,> 100,> 100,> 100,> 100,> 100,> 100,–
CC(C)OC(=O)[C@H]1ON2O[C@H](O[C@@H]3CCCC[C@H]3c3ccccc3)C([Si](C)(C)c3ccccc3)[C@H]3OC(=O)[C@@H]1C32 (some centres not stated),> 100,> 100,> 100,> 100,> 100,> 100,> 100,> 100,> 100,> 100,> 100,> 100,> 100,> 100,> 100,> 100,> 100,> 100,> 100,–
c1ccc2c(c1)c1c3c(c4c(n32)=NCCN4)CCC1,> 100,> 100,> 100,98.2,> 100,> 100,> 100,> 100,> 100,> 100,> 100,92.1,> 100,71.5,> 100,98.9,> 100,80.9,> 100,–
CCS(=O)c1c2cc(OC)ccc2nc2ccc(OC)cc12 (configuration not stated),6.42,> 100,47.5,> 100,38.9,51.1,37.6,15.5,14.9,24.9,6.49,5.85,26.4,38.2,13,11.2,63.4,47.8,31.9,–
CN(C)CCCNC(=O)c1cc(NS(=O)(=O)c2ccc3c(c2)C(=O)c2ccccc2C3=O)cn1C,77.3,62.3,> 100,46.4,> 100,> 100,62.8,> 100,> 100,> 100,76.3,> 100,59,56,49.5,85.5,94.9,42.5,53.9,–
